Here are results for 17 compounds from patent US10273241B2 (President and Fellows of Harvard College, priority 2013, dated 2019).

One series deals with MV4;11. As to the kind of experiment: Cell growth assay, MV4;11 AML cell line. The settings on record: Homo sapiens. Format: cell-based, human. How it is done:
(§1) For all other cell lines, compounds were serially diluted in medium and dispensed in triplicate in 96-well plates (0.1% DMSO final for assay) followed by the addition of exponentially growing cells at densities ranging from 5,000 to 30,000 cells/well. Cells were also seeded into 2 additional control wells containing vehicle (0.1% DMSO). […] To determine the estimated cell number in each well, cells that were counted in the control well were diluted 3-fold for an 8-point dilution series, and transferred to 384-well plates in duplicate, 20 μL per well. Cells in all other wells were diluted 4-fold and transferred to 384-well plates in duplicate, 20 μL per well. 20 μL of CellTiter-Glo (Promega) was subsequently added to all wells and luminescence was detected using a SPECTRAmax M3. The control well dilution series was fit to a linear regression and used as a standard for calculating the estimated cell number for each well. For days 7 and 10, total estimated cell number represents the split-adjusted theoretical cell number.

The test system of another series is MOLM-14. As to the kind of experiment: Cell growth assay, MOLM-14 AML cell line. The series is classed as cell-based, human. The settings on record: Homo sapiens. How it is done: as §1
For the next series, the system named is K562. Briefly: Cell growth assay, K562 cell line. Format: cell-based, human. Conditions: Homo sapiens, K562, 240 h; day 10; lack of activity is taken as evidence of on-target selectivity. How it is done:
(§2) For all other cell lines, compounds were serially diluted in medium and dispensed in triplicate in 96-well plates (0.1% DMSO final for assay) followed by the addition of exponentially growing cells at densities ranging from 5,000 to 30,000 cells/well. Cells were also seeded into 2 additional control wells containing vehicle (0.1% DMSO). After 3 days, the number of viable cells in one of the control wells was counted by hemocytometer or MOXI Z (Orflo) and an equal volume of cells for all wells were split-back with fresh vehicle/compounds such that the resulting seeding density for the control well was 5,000-30,000 cells/well, matching the initial seeding density in that well. This procedure was repeated on day 7 and day 10. % growth was calculated as % growth=100×(total estimated cell number in well−day 0 starting cell number)/(total average vehicle estimated cell number−day 0 starting cell number). To determine the estimated cell number in each well, cells that were counted in the control well were diluted 3-fold for an 8-point dilution series, and transferred to 384-well plates in duplicate, 20 μL per well. Cells in all other wells were diluted 4-fold and transferred to 384-well plates in duplicate, 20 μL per well. 20 μL of CellTiter-Glo (Promega) was subsequently added to all wells and luminescence was detected using a SPECTRAmax M3. The control well dilution series was fit to a linear regression and used as a standard for calculating the estimated cell number for each well. For days 7 and 10, total estimated cell number represents the split-adjusted theoretical cell number.

Series [1] is described as follows: Pharmacokinetic study of 14A in male CD-1 mice. The settings on record: CD-1, mouse, blood. The series is classed as in vivo. The method, then: For pharmacokinetic studies with (14A), (14A) was formulated in 20% hydroxypropyl-beta-cyclodextrin (HPCD) and male CD-1 mice were given a single dose of 14A at 3 mg/kg i.p. and intravenous (i.v.) and 10 mg/kg oral (p.o.). Prior to dosing, mice were fasted overnight until 4 hours post-dosing. Blood samples were collected at the indicated timepoints and analyzed by HPLC/MS/MS to evaluate the concentration of (14A).

Series [2] has as its system Human Umbilical Vein Endothelial Cells (HUVECs). Briefly: HUVEC growth inhibition (CellTiter-Blue, 96 h). The settings on record: 96 hour treatment. The series is classed as cell-based. How it is done: HUVECs were plated in triplicate in 96-well plates at a density of 1,000 cells/well in 75 μL. After 24 h, compounds were serially diluted in medium and delivered to cells as 4× solutions in 25 μL (0.1% DMSO final for assay). 96 h after compound addition, CellTiter-Blue (Promega) was added to the wells, plates were incubated at 37° C. for 90 min, and fluorescence (555 nm excitation; 580 nm emission) was detected using a SPECTRAmax M3. IC50 was determined by fitting the data to a four-parameter dose-response curve using GraphPad Prism 5.0.

The next series relates to SET-2. As to the kind of experiment: Cell growth assay, SET-2 cell line. The series is classed as cell-based. The settings on record: Homo sapiens, SET-2, 240 h; read-out: SET-2 GI50 day 10. How it is done:
as §2

Series [3] deals with Human Umbilical Vein Endothelial Cells (HUVECs). The settings on record: less potent than cortistatin A; Aoki et al. 2007; cited from earlier work.
The mark [4] stands for this setting: MV4-11, 240 h, day 10, cells passaged, fresh compound added on days 3 and 7, read-out: MV 4;11 GI50 day 10.
[5] abbreviates: MV4-11, day 7, fresh compound added on day 3, read-out: MV4;11 GI50 day 7.
Where [6] appears, read: MOLM-14, 240 h, day 10, cells passaged, fresh compound added on days 3 and 7, read-out: MOL M14 G150 day 10.
[7] abbreviates: MOLM-14, day 7, fresh compound added on day 3, read-out: MOL M14 GI50 day 7.

Like-named read-outs stand apart in the source and are kept apart here.

Take `C[C@]12CC=C3C=C4CC[C@H](N5CCC5)C[C@]45CCC3(O5)[C@@H]1CC[C@@H]2c1ccc2ccncc2c1` [18B, β-azetidine]: the GI50 with MV4;11 (setting [4]) is 13 nM; in the series on MV4;11 (setting [5]), 20 nM; with MOLM-14 (setting [6]) it was 13 nM; with MOLM-14 (setting [7]), 25 nM; in the series with K562 it was above 1000 nM.

As for `CN(C)[C@@H]1CCC2=CC3=CC[C@]4(C)[C@@H](c5ccc6ccncc6c5)CC[C@H]4C34CC[C@]2(C1)O4` [14A, α-dimethylamine], the clearance – broadly, the rate of elimination divided by the concentration – in series [1] (3 mg/kg IV) is 29 mL/min/kg. In addition, the Cmax (in general, the highest concentration seen after dosing) in series [1] (10 mg/kg PO in 20% HPCD, after 2 hours, read-out: Cmax after oral dosing) turned out to be 255 ng/mL. Further, in series [1] (10 mg/kg PO in 20% HPCD, read-out: T1/2 after oral dosing (converted)), the half-life was around 5 h. The concentration at 24 h in series [1] (10 mg/kg PO, 24 h, read-out: oral C24 trough concentration) is 14.2 ng/mL. Moreover, the bioavailability (in general, the share of a dose that reaches the circulation, judged against a reference dose that is usually intravenous) was 95% in series [1] (ip, 3 mg/kg, 3 mg/kg IP, read-out: IP bioavailability) and 44% in series [1] (oral, 10 mg/kg, 10 mg/kg PO vs 3 mg/kg IV, read-out: oral bioavailability). In series [1] (iv, 3 mg/kg, 3 mg/kg IV, read-out: Vss), the Vd worked out at 11.7 L/kg.

As for `C[C@]12CC=C3C=C4CC[C@H](NS(C)(=O)=O)C[C@]45CCC3(O5)[C@@H]1CC[C@@H]2c1ccc2ccncc2c1` [73B, β-methylsulfonamide], the GI50 was 150 nM with MV4;11 (setting [4]), 200 nM in the series on MOLM-14 (setting [6]) and above 1000 nM with K562.

Turning to `CN1CCN([C@H]2CCC3=CC4=CC[C@]5(C)[C@@H](c6ccc7ccncc7c6)CC[C@H]5C45CC[C@]3(C2)O5)CC1` [16B, β-N-methylpiperazine], the GI50 is 8 nM in the series on MV4;11 (setting [4]); 15 nM with MV4;11 (setting [5]); 9 nM with MOLM-14 (setting [6]); 17 nM in the series with MOLM-14 (setting [7]); above 1000 nM in the series with K562.

As for `C[C@]12CC=C3C=C4[C@@H](O)[C@H](O)[C@@H]([N+](C)(C)[O-])CC45CC[C@]3(O5)[C@@H]1CC[C@@H]2c1ccc2ccncc2c1` [cortistatin A N-oxide, Cortistatin A N-oxide], the “inhibition of HUVEC proliferation compared with cortistatin A” value in series [2] is “equipotent”.

As for `C[C@]12CC=C3C=C4CC[C@@H](NS(C)(=O)=O)C[C@]45CCC3(O5)[C@@H]1CC[C@@H]2c1ccc2ccncc2c1` [73A, α-methylsulfonamide], the results for the GI50 in the series with MV4;11 (setting [4]), in the series on MOLM-14 (setting [6]) and with K562 were 90 nM, 200 nM and above 1000 nM, respectively.

On to `CC1(C)NC(=O)N([C@@H]2CCC3=CC4=CC[C@]5(C)[C@@H](c6ccc7ccncc7c6)CC[C@H]5C45CC[C@]3(C2)O5)C1=O` [74A, α-dimethylhydantoin], for which the GI50 in the series on MV4;11 (setting [4]) is 400 nM; with MOLM-14 (setting [6]), 800 nM; in the series with K562 it was above 1000 nM.

For `C[C@]12CC=C3C=C4CC[C@@H](N)CC45CC[C@]3(O5)[C@@H]1CC[C@@H]2c1ccc2ccncc2c1` [62A, α-primaryamine], the GI50 in the series with MV4;11 (setting [4]) was 0.4 nM; with MOLM-14 (setting [6]), 5 nM; with SET-2 it was 0.45 nM.

With `CN[C@@H]1CCC2=CC3=CC[C@]4(C)C(c5ccc6ccncc6c5)CC[C@H]4C34CC[C@]2(C1)O4` (stereo partly drawn) [24A, α-monomethylamine], the results for the GI50 in the series on MV4;11 (setting [4]), with MOLM-14 (setting [6]) and in the series on SET-2 were 1 nM, 18 nM and 0.5 nM, respectively.

Consider `C[C@]12CC=C3C=C4CC[C@@H](N5CCOCC5)C[C@]45CCC3(O5)[C@@H]1CC[C@@H]2c1ccc2ccncc2c1` [15A, α-morpholine], for which the GI50 in the series on MV4;11 (setting [4]) stood at 2.5 nM; in the series on MOLM-14 (setting [6]) it was 20 nM; with SET-2 it was 8 nM.

Regarding `C[C@]12CC=C3C=C4CC[C@H](N5CCOCC5)C[C@]45CCC3(O5)[C@@H]1CC[C@@H]2c1ccc2ccncc2c1` [15B, β-morpholine], the results for the GI50 in the series with MV4;11 (setting [4]), in the series with MOLM-14 (setting [6]) and with K562 were 12 nM, 12.5 nM and above 1000 nM, respectively.

Turning to cortistatin J, in series [3], the “potency at inhibiting HUVEC proliferation relative to cortistatin A” value is recorded as 8 fold.

Turning to `C[C@]12CC=C3C=C4CC[C@@H](N5CCCC5)C[C@]45CC[C@]3(O5)[C@@H]1CC[C@@H]2c1ccc2ccncc2c1` [19A, α-pyrrolidine], the GI50 in the series with MV4;11 (setting [4]) is 1.5 nM; in the series on MOLM-14 (setting [6]), 5 nM; in the series with SET-2, 0.4 nM.

For `CN(C)[C@H]1CCC2=CC3=CC[C@]4(C)C(c5ccc6ccncc6c5)=CC[C@H]4[C@@]34CC[C@]2(C1)O4` [23B, β-dimethylamine 17,18-unsaturated isoquinoline], the GI50 in the series with MV4;11 (setting [4]) was 35 nM; with MOLM-14 (setting [6]) it was 55 nM; in the series on K562, above 1000 nM.

Regarding `C[C@]12CC=C3C=C4CC[C@@H](N5CCC5)CC45CC[C@]3(O5)[C@@H]1CC[C@@H]2c1ccc2ccncc2c1` [18A, α-azetidine], the GI50 in the series on MV4;11 (setting [4]) is 1 nM; with MOLM-14 (setting [6]), 3 nM.

On to `[2H]C([2H])([2H])N([C@H]1CCC2=CC3=CC[C@]4(C)C(c5ccc6ccncc6c5)CC[C@H]4[C@@]34CC[C@]2(C1)O4)C([2H])([2H])[2H]` (stereo partly drawn) [26B, β-deuterodimethylamine], for which the GI50 came out at 4 nM with MV4;11 (setting [4]) and 6 nM in the series on MOLM-14 (setting [6]).

Regarding `C[C@]12CC=C3C=C4CC[C@H](N5CCC6(COC6)C5)C[C@]45CCC3(O5)[C@@H]1CCC2c1ccc2ccncc2c1` (stereo partly drawn) [38B, β-2-oxa-6-azaspiro[3.4]octane], the GI50 with MV4;11 (setting [4]) and with MOLM-14 (setting [6]) was 10 nM each time.
